# According to US20070172957A1, “Methods of identifying anti-inflammatory macrolides” (TAISHO PHARMACEUTICAL CO., LTD., priority 2004, published 2007):
# Tested on: genes predictive for the anti-inflammatory macrolide effect
# Assay: Genes statistically predictive of Clari response: differentially expressed with Clari but not the inactive macrolides MAA or Josa (Appendix E)
# Assay type: cell-based
# Text: In the case of the above-mentioned (i) related to arachidonic acid biosynthesis, specifically, methods of the embodiment involve assaying whether a test macrolide alters biosynthesis of arachidonic acid, alters the expression or activities of enzymes involved in the biosynthesis or activation of arachidonic acid (e.g., arachidonic acid CoA synthetase, delta-6 desaturase, fatty acid elongase, and delta-5 desaturase, AA-related genes in Tables 2 and 3), or alters the expression of genes identified as predictive for the anti-inflammatory macrolide effect (Appendix E). Assays in which arachidonic acid or gene expression or enzymatic activity is detected can be carried out after contacting a cell with a test macrolide. Any cell line that secretes prostaglandin or produces arachidonic acid can be used. Epithelial and macrophages lines (e.g., A549 or THP-1) are suitable for this purpose; other cell lines can be identified by carrying out assays such as those described in the specific Examples, below. Alternatively, screening assays can be carried out after adding a test macrolide to an in vitro cell system (e.g., a cellular extract or liver microsome preparation) or an in vitro enzyme assay system.
smiles,measurement,setting,value
CO[C@@H]1[C@@H](O[C@@H]2O[C@H](C)[C@@H](O[C@H]3C[C@@](C)(O)[C@@H](OC(=O)CC(C)C)[C@H](C)O3)[C@H](N(C)C)[C@H]2O)[C@@H](CC=O)C[C@@H](C)[C@@H](O)/C=C/C=C/C[C@@H](C)OC(=O)C[C@H]1OC(C)=O [josamycin],"group mean, gene DDOST","SpotID 49757, MAA and Josa vs. Clari",0.96
same,"group mean, gene BCL2L2","SpotID 49761, MAA and Josa vs. Clari",0.85
same,"group mean, gene AD022","SpotID 49767, MAA and Josa vs. Clari",0.96
same,"mean group, AD022","SpotID 49767, pooled group mean",0.96
same,"group mean, gene P4HB","SpotID 49781, MAA and Josa vs. Clari",0.98
same,"group mean, gene CYC1","SpotID 49787, MAA and Josa vs. Clari",1.09
same,"mean group, CYC1","SpotID 49787, pooled group mean",1.09
same,"group mean, gene BCL2L2","SpotID 49794, MAA and Josa vs. Clari",0.86
same,"mean group, AD022","SpotID 49800, pooled group mean",0.97
same,"group mean, gene CDKN2C","SpotID 49815, MAA and Josa vs. Clari",1.06
same,"group mean, gene CYC1","SpotID 49820, MAA and Josa vs. Clari",1.05
same,"group mean, gene LAMP2","SpotID 49882, MAA and Josa vs. Clari",0.99
same,"group mean, gene ATP2B4","SpotID 49915, MAA and Josa vs. Clari",1.23
same,"mean group, ATP2B4","SpotID 49915, pooled group mean",1.23
same,"group mean, gene DHCR24","SpotID 49922, MAA and Josa vs. Clari",1.00
same,"group mean, gene KIAA0169","SpotID 49930, MAA and Josa vs. Clari",1.03
same,"mean group, RFC1","SpotID 49947, pooled group mean",1.05
same,"group mean, gene CCNE2","SpotID 49967, MAA and Josa vs. Clari",1.02
same,"group mean, gene BMP6","SpotID 49981, MAA and Josa vs. Clari",0.94
same,"group mean, gene VTN","SpotID 49989, MAA and Josa vs. Clari",1.19
same,"group mean, gene SRC","SpotID 49990, MAA and Josa vs. Clari",0.99
same,"group mean, gene NFYC","SpotID 50011, MAA and Josa vs. Clari",1.10
same,"mean group, HIF1A","SpotID 50022, pooled group mean",1.07
same,"group mean, gene GNB2L1","SpotID 50049, MAA and Josa vs. Clari",1.32
same,"mean group, NDUFA2","SpotID 50050, pooled group mean",0.90
same,"group mean, gene MBTPS1","SpotID 50067, MAA and Josa vs. Clari",0.95
same,"group mean, gene SCOP","SpotID 50079, MAA and Josa vs. Clari",0.97
same,"mean group, SCOP","SpotID 50079, pooled group mean",0.97
same,"group mean, gene IDI1","SpotID 50084, MAA and Josa vs. Clari",0.90
same,"group mean, SpotID 50085 (gene symbol not given)","SpotID 50085, MAA and Josa vs. Clari",1.18
same,"group mean, gene CNOT3","SpotID 50099, MAA and Josa vs. Clari",0.95
same,"mean group, CNOT3","SpotID 50099, pooled group mean",0.95
same,"group mean, gene IRF5","SpotID 50103, MAA and Josa vs. Clari",0.87
same,"group mean, gene RRBP1","SpotID 50135, MAA and Josa vs. Clari",0.95
same,"group mean, SpotID 50216 (gene symbol not given)","SpotID 50216, MAA and Josa vs. Clari",0.95
same,"group mean, gene FLJ13868","SpotID 50222, MAA and Josa vs. Clari",0.93
same,"group mean, gene HK2","SpotID 50224, MAA and Josa vs. Clari",0.95
same,"mean group, IL10RB","SpotID 50267, pooled group mean",0.98
same,"group mean, gene UQCR","SpotID 50284, MAA and Josa vs. Clari",0.83
same,"group mean, gene TM7SF2","SpotID 50294, MAA and Josa vs. Clari",1.01
same,"group mean, gene CDR2","SpotID 50302, MAA and Josa vs. Clari",0.89
same,"group mean, gene MAX","SpotID 50307, MAA and Josa vs. Clari",0.96
same,"group mean, gene BMP6","SpotID 50319, MAA and Josa vs. Clari",0.98
same,"group mean, gene DAD1","SpotID 50332, MAA and Josa vs. Clari",1.02
same,"group mean, gene FGFR2","SpotID 50337, MAA and Josa vs. Clari",0.93
same,"group mean, gene IKKE","SpotID 50342, MAA and Josa vs. Clari",0.94
same,"mean group, IKKE","SpotID 50342, pooled group mean",0.94
same,"group mean, gene LOC51295","SpotID 50349, MAA and Josa vs. Clari",1.01
same,"mean group, LOC51295","SpotID 50349, pooled group mean",1.01
same,"mean group, CFL1","SpotID 50351, pooled group mean",1.16
same,"group mean, gene TFAM","SpotID 50386, MAA and Josa vs. Clari",1.05
same,"group mean, gene DGCR6L","SpotID 50399, MAA and Josa vs. Clari",1.02
same,"group mean, gene CHERP","SpotID 50405, MAA and Josa vs. Clari",1.00
same,"group mean, gene AGPAT1","SpotID 50412, MAA and Josa vs. Clari",0.99
same,"mean group, GOCAP1","SpotID 50421, pooled group mean",1.01
same,"group mean, gene SIGIRR","SpotID 50452, MAA and Josa vs. Clari",0.96
same,"group mean, gene MMP15","SpotID 50464, MAA and Josa vs. Clari",0.87
same,"group mean, gene CEBPA","SpotID 50474, MAA and Josa vs. Clari",0.97
same,"mean group, MGP","SpotID 50511, pooled group mean",0.83
same,"group mean, gene ARHC","SpotID 50513, MAA and Josa vs. Clari",0.91
same,"mean group, ARHC","SpotID 50513, pooled group mean",0.91
same,"group mean, gene PRKCBP1","SpotID 50532, MAA and Josa vs. Clari",1.07
same,"group mean, gene PTPRT","SpotID 50550, MAA and Josa vs. Clari",0.92
same,"mean group, BN51T","SpotID 50584, pooled group mean",0.97
same,"mean group, CKS2","SpotID 50590, pooled group mean",0.74
same,"mean group, SpotID 50591","SpotID 50591 (gene symbol not given), pooled group mean",1.01
same,"group mean, SpotID 50591 (gene symbol not given)","SpotID 50591, MAA and Josa vs. Clari",1.01
same,"mean group, SRP19","SpotID 50601, pooled group mean",0.95
same,"group mean, gene PDIR","SpotID 50639, MAA and Josa vs. Clari",0.91
same,"group mean, gene PROS1","SpotID 50643, MAA and Josa vs. Clari",0.93
same,"mean group, BET1","SpotID 50645, pooled group mean",0.84
same,"group mean, gene COPB2","SpotID 50654, MAA and Josa vs. Clari",0.99
same,"group mean, gene MAX","SpotID 50659, MAA and Josa vs. Clari",0.95
same,"group mean, gene GNB5","SpotID 50689, MAA and Josa vs. Clari",1.00
same,"group mean, gene PRKDC","SpotID 50736, MAA and Josa vs. Clari",1.07
same,"mean group, PRKDC","SpotID 50736, pooled group mean",1.07
same,"group mean, gene AD022","SpotID 50738, MAA and Josa vs. Clari",0.94
same,"mean group, AD022","SpotID 50738, pooled group mean",0.94
